Reference: patent US20250019357A1, “[…] MORPHIC FORMS AND MIXTURES FOR THE TREATMENT OF MENTAL DISORDERS OR MENTAL ENHANCEMENT” (TACTOGEN INC, priority 2021, published 2025)
“Also recorded” adds a separate entry of the source.

Columns and labels:
[1] = molecular target: hTAAR1 (human trace amine-associated receptor) (Homo sapiens (Human), UniProt Q96RJ0); assay: Interaction with hTAAR1; conditions: concentrations up to 60 μM
[2] = molecular target: T1, SERT (Rattus norvegicus (Rat), UniProt P31652); assay: In vitro rat synaptosome serotonin release (efflux) assay (Examples 9, 58); format: biochemical; conditions: rat synaptosomes
Excerpt: (§1) FIG. 7B is a graph showing results from an in vitro rat synaptosome serotonin release assay. […] Details and procedural information for this assay are described in Example 9. The x-axis is the log [dose] concentration measured in molar and the y-axis is the [^3H]-labeled 5-HT release measured in percent.
as §1, with “177” for “7B”, “58.” for “9.”, “x-axis” for “x-axis is”

[3] = molecular target: 5-HT2A receptor (Homo sapiens (Human), UniProt P28223); assay: 5-HT2A agonist activity (Example 6); format: cell-based
[4] = tested on: NET; assay: In vitro rat synaptosome norepinephrine release assay (Examples 9, 58); format: biochemical; conditions: rat synaptosomes
Excerpt: as §1, with “8C” for “7B”, “from” for “from an”, “synaptosome dopamine and norepinephrine release assays. […] Previously presented” for “synaptosome”, “results are included for comparison.” for “release assay.”
(§2) FIG. 178 is a graph showing results from in vitro rat synaptosome dopamine and norepinephrine release assays. […] Previously presented serotonin results are included for comparison. […] Details and procedural information for this assay are described in Example 58. The x-axis the log [dose] concentration measured in Molar units and the y-axis is the [^3H]-labeled 5-HT release measured in percent of maximum produced by the comparison releaser.

[5] = tested on: Swiss CD1 mice; assay: Marble burying test; format: in vivo; conditions: enantiomers given simultaneously
[6] = Marble burying assay (Example 5); format: in vivo; conditions: individual enantiomers vs the racemic mixture
Excerpt: FIG. 2 is a chart showing results from the marble burying assay to measure decreased anxiety and neuroticism resulting from treatment with S-5-MAPB, R/S-5-MAPB, and R-5-MAPB. […] The y-axis gives the compound and dose. Error bars indicate 95% confidence intervals. Details and procedural information for this assay are described in Example 5.

[7] = molecular target: human 5-HT transporter (hSERT) (Homo sapiens (Human), UniProt P31645); assay: Human serotonin transporter  assay ([3H]imipramine radioligand, CHO cells); format: binding; conditions: 2 nM [3H]imipramine, CHO cells; read-out: SERT IC50
Experimental: EXAMPLE 8: Human Serotonin Transporter (SERT, SLC6A4) Functional Antagonist Uptake Assay
Benzofuran derivatives were evaluated for inhibiting the human 5-HT transporter (hSERT) as expressed in CHO cells using an antagonist radioligand assay (Tatsumi, M. et al. (1999), Eur. J. Pharmacol., 368: 277-283). […] Test compounds were assayed in three trials at […], and 0.94868 μM.
EXAMPLE 57: Human Serotonin Transporter (SERT, SLC6A4) Functional Antagonist Uptake Assay

[8] = molecular target: dopamine transporter (DAT) (Rattus norvegicus (Rat), UniProt P23977); assay: Rat synaptosome DAT release assay ([3H]MPP+); conditions: read-out: dopamine Emax (maximum dopamine increase relative to reference drug)
[9] = molecular target: T1, SERT; assay: In vitro rat synaptosome serotonin uptake inhibition assay (Examples 9, 58); format: biochemical; conditions: rat synaptosomes
Excerpt: as §1, with “FIG. 7A” for “FIG. 7B”, “serotonin uptake inhibition” for “serotonin release”, “5-HT reuptake” for “5-HT release”
FIG. 176 is a graph showing results from an in vitro rat synaptosome serotonin uptake inhibition assay. […] Details and procedural information for this assay are described in Example 58. The x-axis the log [dose] concentration is measured in Molar units and the y-axis is the [^3H]-labeled 5-HT reuptake measured in percent of maximum produced by the comparison releaser.

[10] = tested on: norepinephrine transporter (NET); assay: Rat synaptosome NET release assay ([3H]MPP+); conditions: rat synaptosomes
[11] = molecular target: DAT (Rattus norvegicus (Rat), UniProt P23977); assay: In vitro rat synaptosome dopamine release assay (Examples 9, 58); format: biochemical; conditions: rat synaptosomes
Excerpt: as §1, with “8C” for “7B”, “from” for “from an”, “synaptosome dopamine and norepinephrine release assays. […] Previously presented” for “synaptosome”, “results are included for comparison.” for “release assay.”
as §2

[12] = tested on: MDR1-MDCKII cell line; assay: In vitro absorption assay, MDR1-MDCKII permeability; format: in vitro ADME
Experimental: (§3) The permeability of 10 μM RS-5-MAPB in Caco-2, MDCKII, and MDR1-MDCKII cell line assays was assessed (Table 6). Both the AB and BA directions with and without the addition of a Pgp-specific inhibitor (verapamil), a MRP1 inhibitor (MK571), and an ATP-binding cassette subfamily G member 2 (ABCG2/BCRP) inhibitor (KG143) were measured. Trials were repeated twice, and values averaged.

[13] = tested on: MDCKII cell line; assay: In vitro absorption assay, MDCKII permeability; format: in vitro ADME; conditions: pH 7.4/7.4, 10 μM
Experimental: as §3

[14] = Human self-reported effects of non-racemic 5-MAPB (Good, Bad, Open ratings); format: in vivo; conditions: one healthy human, 54 mg total 5-MAPB HCl oral in two halves 1 hour apart; session maximum averaged (N=2, 13% S N=1)
Experimental: The effects of non-racemic 5-MAPB HCl were tested by a healthy human individual at four different ratios of enantiomers plus the racemate as a control: • 54 mg S and 0 mg R (100% S) • 47 mg S and 7 mg R (about 87% S) • 36 mg S and 18 mg R (about 67% S) • 27 mg S and 27 mg R (about 50% S) • 7 mg S and 47 mg R (about 13% S)
Two trials were carried out at each ratio, except for 13% S where only one was conducted. Trials were at least 72 h apart.
5-MAPB HCl was dissolved in 1.5 ml distilled water and consumed in two halves, separated by 1 hour. Starting at 3 hours after administration, tablets of 250 mg ascorbic acid and capsules of 300 mg alpha lipoic acid were taken ad libitum (approximately every hour for a total of 4 administrations).
Measurements were made approximately every 2 hours until post 6 hours and the maximum ratings per session were analyzed. Additionally, an index of good drug effects versus emotional openness, calculated as (Open−Good)/(200, the theoretical maximum of Open+ Good), was constructed at each time point and the maximum analyzed. In healthy volunteers, Good Ratings can be considered a predictor of abuse liability. Accordingly, this index can be used as an indicator of the balance of a therapeutic effect (emotional openness) vs abuse liability.
Historic data of two trials 50 mg RS-5-MAPB Cl from the same individual were also included in the analysis for comparison.
Table 24 below indicates maximums for individual measures and for the open vs good index, averaged from all sessions (N=2, except for 13% S-5-MAPB where N=1). Qualitatively, all conditions produced subtle emotional effects, including decreases in negative affect and increases in stability of mood, without sensory distortion.

[15] = molecular target: human SERT (Homo sapiens (Human), UniProt P31645); assay: hSERT release assay in CHO cells ([3H]serotonin); conditions: read-out: EC50 SERT (Mean ± SEM), CHO cells expressing hSERT
[16] = tested on: Caco-2 cell line; assay: In vitro absorption assay, Caco-2 permeability; format: in vitro ADME
Experimental: as §3

[17] = molecular target: human DAT (Homo sapiens (Human), UniProt Q01959); assay: hDAT release assay in CHO cells ([3H]dopamine); conditions: read-out: EC50 DAT (Mean ± SEM), CHO cells expressing hDAT
[18] = Caco-2, pH 7.4/7.4 + KO143, 10 μM
[19] = Caco-2, pH 7.4/7.4 + verapamil, 10 μM

## CCC(Cc1ccc2ccoc2c1)NC (racemic) [Pattern 6-MBPB, 6-MBPB]
[1]
  interactions with hTAAR1: lacks interactions with hTAAR1
[2]
  [3H]-labeled 5-HT release: 5-HT releaser
[3]
  5-HT2A agonist activity: poor agonist of 5-HT2A
[4]
  norepinephrine release: only partial releaser of norepinephrine

## CNC(C)Cc1ccc2occc2c1 (centres unmarked) [Pattern 5-MAPB, 5-MAPB]
[5]
  marble burying: interaction between enantiomers: strong non-additive interaction
[6]
  anxiolytic effect, percent of marbles left unburied versus placebo: non-additive effects of the two enantiomers

## CC[C@H](Cc1ccc2occc2c1)NC [Pattern R-5-MBPB, R-5-MBPB]
[7]
  IC50: < 950 nM
[2]
  [3H]-labeled 5-HT release: rapidly increases extracellular serotonin by stimulating release
[8]
  Emax: ~25%
[9]
  [3H]-labeled 5-HT reuptake (serotonin uptake inhibition): rapidly increases extracellular serotonin by inhibiting reuptake
[10]
  norepinephrine Emax: 58%
[4]
  norepinephrine release: partial releasers of norepinephrine; also recorded: rapidly increases extracellular norepinephrine by stimulating release
[11]
  dopamine release / dopamine uptake: reuptake inhibitors of dopamine; also recorded: dopamine uptake inhibitors

## CC[C@@H](Cc1ccc2occc2c1)NC [Pattern S-5-MBPB, S-5-MBPB]
[7]
  IC50: < 950 nM
[2]
  [3H]-labeled 5-HT release: rapidly increases extracellular serotonin by stimulating release
[9]
  [3H]-labeled 5-HT reuptake (serotonin uptake inhibition): rapidly increases extracellular serotonin by inhibiting reuptake
[4]
  norepinephrine release: rapidly increases extracellular norepinephrine by stimulating release

## CNC(C)Cc1ccc2occc2c1 (centres unmarked) [RS-5-MAPB]
[12]; pH 7.4/7.4 + verapamil, 10 μM
  Permeability (Papp) A-B: 42.8 10^−6 cm/s
  Permeability (Papp) B-A: 30.4 10^−6 cm/s
[12]; pH 7.4/7.4, 10 μM
  Permeability (Papp) A-B: 68.7 10^−6 cm/s
  Permeability (Papp) B-A: 20.5 10^−6 cm/s
[13]
  Permeability (Papp) A-B: 82.1 10^−6 cm/s
  Permeability (Papp) B-A: 19.8 10^−6 cm/s
[14]
  Bad (bad drug effects), maximum 0-100 rating: 10%
  Good (good drug effects), maximum 0-100 rating: 50%
  Open (emotional openness), maximum 0-100 rating: 45%
[15]
  EC50: 90 ± 16 nM
[16]; Caco-2, MDCKII and MDR1-MDCKII assays taken together
  absorption (conclusion of the permeability assays): well absorbed
[16]; [18]
  Permeability (Papp) A-B: 75.3 10^−6 cm/s
  Permeability (Papp) B-A: 14 10^−6 cm/s
[16]; [19]
  Permeability (Papp) A-B: 37.6 10^−6 cm/s
  Permeability (Papp) B-A: 23 10^−6 cm/s
[16]; Caco-2, pH 7.4/7.4, 10 μM
  Permeability (Papp) A-B: 81 10^−6 cm/s
  Permeability (Papp) B-A: 29.1 10^−6 cm/s
[17]
  EC50: 459 ± 48 nM
